Activity calls are given as the source filed them.

Assay [1] deals with Serine/threonine-protein kinase MRCK alpha (Homo sapiens, UniProt Q5VT25).
The target of assay [2] is T1, Structural maintenance of chromosomes protein 1A (Homo sapiens, UniProt Q14683).
T1 sequence (Q14683 whole entry): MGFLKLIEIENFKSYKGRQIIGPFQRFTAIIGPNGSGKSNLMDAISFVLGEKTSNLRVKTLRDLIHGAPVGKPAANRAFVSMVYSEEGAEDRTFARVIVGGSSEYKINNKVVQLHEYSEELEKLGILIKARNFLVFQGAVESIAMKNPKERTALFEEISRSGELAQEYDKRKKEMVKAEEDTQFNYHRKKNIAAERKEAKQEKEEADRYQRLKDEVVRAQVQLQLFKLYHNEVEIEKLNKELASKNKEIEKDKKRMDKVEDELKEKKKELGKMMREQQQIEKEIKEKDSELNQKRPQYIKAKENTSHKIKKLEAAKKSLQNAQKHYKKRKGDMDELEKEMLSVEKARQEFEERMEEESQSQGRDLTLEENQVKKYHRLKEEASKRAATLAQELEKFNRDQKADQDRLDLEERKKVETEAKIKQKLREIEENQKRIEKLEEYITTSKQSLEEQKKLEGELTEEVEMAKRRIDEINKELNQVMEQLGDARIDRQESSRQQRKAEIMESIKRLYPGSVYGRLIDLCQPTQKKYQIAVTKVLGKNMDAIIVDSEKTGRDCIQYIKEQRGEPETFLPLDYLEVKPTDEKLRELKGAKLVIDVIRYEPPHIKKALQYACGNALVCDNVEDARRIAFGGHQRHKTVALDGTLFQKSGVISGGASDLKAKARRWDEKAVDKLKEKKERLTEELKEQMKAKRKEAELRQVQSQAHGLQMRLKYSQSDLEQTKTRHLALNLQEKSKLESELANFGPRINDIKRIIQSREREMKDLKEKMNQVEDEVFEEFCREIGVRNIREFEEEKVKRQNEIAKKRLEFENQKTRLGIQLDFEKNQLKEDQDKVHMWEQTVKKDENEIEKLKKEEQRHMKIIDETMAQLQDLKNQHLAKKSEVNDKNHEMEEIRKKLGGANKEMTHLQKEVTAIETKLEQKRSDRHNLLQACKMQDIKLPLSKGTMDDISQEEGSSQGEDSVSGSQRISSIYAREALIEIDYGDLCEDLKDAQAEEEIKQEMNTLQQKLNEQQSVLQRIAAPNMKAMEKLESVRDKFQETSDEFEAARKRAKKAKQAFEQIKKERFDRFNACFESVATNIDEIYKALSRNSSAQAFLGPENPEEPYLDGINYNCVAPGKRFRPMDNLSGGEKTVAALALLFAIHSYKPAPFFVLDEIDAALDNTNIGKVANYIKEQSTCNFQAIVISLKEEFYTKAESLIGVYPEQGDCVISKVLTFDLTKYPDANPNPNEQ

Assay [3] deals with T2, Acyl-CoA dehydrogenase family member 10 (Homo sapiens, UniProt Q6JQN1).
T2 sequence (Q6JQN1 whole entry): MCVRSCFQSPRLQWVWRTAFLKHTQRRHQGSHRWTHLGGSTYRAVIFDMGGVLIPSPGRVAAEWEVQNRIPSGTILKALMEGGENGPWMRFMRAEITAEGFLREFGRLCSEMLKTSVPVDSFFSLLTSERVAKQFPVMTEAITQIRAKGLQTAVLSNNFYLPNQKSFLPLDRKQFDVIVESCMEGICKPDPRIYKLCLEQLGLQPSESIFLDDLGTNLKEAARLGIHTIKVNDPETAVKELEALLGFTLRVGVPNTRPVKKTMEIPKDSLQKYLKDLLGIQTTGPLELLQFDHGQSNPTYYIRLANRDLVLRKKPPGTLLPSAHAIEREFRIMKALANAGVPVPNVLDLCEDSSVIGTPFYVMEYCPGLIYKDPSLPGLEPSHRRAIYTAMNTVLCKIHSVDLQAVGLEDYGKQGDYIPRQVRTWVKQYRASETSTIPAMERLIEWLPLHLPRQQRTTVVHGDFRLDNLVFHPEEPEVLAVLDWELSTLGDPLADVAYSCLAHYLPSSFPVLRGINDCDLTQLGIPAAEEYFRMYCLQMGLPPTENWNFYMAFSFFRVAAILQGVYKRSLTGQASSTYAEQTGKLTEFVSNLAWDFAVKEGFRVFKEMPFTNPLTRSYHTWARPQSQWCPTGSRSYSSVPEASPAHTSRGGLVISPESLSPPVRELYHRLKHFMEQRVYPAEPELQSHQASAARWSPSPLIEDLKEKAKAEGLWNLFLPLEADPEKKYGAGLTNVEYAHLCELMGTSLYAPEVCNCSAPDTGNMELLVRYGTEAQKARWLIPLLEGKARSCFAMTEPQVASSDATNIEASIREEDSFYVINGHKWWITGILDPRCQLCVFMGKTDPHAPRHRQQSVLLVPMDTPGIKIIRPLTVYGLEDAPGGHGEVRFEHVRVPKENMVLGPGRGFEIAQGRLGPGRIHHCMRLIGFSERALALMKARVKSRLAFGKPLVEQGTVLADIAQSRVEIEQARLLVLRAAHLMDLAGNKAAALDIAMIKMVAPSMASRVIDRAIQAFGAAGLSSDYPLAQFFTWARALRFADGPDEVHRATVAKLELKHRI

In assay [4] the target is Insulin-like growth factor 1 receptor (Homo sapiens, UniProt P08069).
Insulin-like growth factor 1 receptor, sequence (P08069 31-736 limits assumed): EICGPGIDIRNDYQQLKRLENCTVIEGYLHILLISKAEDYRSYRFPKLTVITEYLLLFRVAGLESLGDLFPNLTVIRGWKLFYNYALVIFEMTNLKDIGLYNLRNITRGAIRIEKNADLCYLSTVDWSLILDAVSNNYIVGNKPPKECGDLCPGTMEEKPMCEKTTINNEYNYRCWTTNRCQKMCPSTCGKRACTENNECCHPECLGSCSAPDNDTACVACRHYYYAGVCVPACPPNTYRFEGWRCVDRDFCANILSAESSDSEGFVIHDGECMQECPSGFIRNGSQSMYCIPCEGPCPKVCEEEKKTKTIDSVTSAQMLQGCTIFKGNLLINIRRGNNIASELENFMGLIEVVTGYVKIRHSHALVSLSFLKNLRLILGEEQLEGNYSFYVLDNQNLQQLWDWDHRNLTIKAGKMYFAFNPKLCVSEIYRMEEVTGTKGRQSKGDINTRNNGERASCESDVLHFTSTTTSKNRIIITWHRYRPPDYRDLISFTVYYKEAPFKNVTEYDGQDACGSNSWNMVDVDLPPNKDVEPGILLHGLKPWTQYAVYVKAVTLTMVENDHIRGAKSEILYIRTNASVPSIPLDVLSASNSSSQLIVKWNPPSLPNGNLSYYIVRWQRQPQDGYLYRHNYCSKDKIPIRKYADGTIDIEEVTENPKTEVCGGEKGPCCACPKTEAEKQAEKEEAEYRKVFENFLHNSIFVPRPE
Insulin-like growth factor 1 receptor, sequence (P08069 741-1367 limits assumed): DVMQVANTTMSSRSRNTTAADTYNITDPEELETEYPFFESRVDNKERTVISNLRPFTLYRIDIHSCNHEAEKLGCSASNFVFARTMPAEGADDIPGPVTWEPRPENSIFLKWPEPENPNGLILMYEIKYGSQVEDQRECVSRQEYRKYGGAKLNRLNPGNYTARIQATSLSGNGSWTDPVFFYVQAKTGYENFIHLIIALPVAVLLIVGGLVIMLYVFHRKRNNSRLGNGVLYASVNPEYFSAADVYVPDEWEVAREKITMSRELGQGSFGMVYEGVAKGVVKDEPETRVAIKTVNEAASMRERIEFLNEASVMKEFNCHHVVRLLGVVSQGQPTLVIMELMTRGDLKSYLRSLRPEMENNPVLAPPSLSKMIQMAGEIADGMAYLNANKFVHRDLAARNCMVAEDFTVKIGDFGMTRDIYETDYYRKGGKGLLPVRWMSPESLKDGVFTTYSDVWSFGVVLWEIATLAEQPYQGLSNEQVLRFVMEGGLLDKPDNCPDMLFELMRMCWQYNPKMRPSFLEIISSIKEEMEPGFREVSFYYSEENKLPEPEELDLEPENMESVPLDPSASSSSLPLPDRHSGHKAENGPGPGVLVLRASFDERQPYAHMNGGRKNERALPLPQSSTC
Assay [5] concerns the target T3, Serine/threonine-protein kinase TBK1 (Homo sapiens, UniProt Q9UHD2).
T3 sequence (Q9UHD2 whole entry): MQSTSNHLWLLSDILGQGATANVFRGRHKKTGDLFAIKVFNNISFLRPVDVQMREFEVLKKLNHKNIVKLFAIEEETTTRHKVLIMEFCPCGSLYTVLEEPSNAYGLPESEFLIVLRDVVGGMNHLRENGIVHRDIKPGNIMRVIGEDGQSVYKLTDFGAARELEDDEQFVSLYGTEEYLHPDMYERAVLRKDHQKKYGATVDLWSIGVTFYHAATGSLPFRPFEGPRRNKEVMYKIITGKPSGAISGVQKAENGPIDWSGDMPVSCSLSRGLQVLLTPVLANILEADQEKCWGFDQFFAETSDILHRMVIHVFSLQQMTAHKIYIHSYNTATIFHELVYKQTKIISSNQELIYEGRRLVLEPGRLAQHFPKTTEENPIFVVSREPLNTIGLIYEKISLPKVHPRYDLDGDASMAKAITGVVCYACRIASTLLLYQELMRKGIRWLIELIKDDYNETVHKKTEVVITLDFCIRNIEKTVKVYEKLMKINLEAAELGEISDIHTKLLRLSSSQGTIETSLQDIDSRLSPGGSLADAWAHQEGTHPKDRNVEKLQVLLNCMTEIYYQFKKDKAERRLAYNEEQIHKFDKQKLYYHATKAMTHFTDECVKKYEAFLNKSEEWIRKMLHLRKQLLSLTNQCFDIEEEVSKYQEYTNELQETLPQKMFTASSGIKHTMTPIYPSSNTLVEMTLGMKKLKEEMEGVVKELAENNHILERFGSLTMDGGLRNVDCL
Note: in the data inactive means no Kd found up to 30 µM.

Serine/threonine-protein kinase MRCK alpha, sequence (Q5VT25 whole entry): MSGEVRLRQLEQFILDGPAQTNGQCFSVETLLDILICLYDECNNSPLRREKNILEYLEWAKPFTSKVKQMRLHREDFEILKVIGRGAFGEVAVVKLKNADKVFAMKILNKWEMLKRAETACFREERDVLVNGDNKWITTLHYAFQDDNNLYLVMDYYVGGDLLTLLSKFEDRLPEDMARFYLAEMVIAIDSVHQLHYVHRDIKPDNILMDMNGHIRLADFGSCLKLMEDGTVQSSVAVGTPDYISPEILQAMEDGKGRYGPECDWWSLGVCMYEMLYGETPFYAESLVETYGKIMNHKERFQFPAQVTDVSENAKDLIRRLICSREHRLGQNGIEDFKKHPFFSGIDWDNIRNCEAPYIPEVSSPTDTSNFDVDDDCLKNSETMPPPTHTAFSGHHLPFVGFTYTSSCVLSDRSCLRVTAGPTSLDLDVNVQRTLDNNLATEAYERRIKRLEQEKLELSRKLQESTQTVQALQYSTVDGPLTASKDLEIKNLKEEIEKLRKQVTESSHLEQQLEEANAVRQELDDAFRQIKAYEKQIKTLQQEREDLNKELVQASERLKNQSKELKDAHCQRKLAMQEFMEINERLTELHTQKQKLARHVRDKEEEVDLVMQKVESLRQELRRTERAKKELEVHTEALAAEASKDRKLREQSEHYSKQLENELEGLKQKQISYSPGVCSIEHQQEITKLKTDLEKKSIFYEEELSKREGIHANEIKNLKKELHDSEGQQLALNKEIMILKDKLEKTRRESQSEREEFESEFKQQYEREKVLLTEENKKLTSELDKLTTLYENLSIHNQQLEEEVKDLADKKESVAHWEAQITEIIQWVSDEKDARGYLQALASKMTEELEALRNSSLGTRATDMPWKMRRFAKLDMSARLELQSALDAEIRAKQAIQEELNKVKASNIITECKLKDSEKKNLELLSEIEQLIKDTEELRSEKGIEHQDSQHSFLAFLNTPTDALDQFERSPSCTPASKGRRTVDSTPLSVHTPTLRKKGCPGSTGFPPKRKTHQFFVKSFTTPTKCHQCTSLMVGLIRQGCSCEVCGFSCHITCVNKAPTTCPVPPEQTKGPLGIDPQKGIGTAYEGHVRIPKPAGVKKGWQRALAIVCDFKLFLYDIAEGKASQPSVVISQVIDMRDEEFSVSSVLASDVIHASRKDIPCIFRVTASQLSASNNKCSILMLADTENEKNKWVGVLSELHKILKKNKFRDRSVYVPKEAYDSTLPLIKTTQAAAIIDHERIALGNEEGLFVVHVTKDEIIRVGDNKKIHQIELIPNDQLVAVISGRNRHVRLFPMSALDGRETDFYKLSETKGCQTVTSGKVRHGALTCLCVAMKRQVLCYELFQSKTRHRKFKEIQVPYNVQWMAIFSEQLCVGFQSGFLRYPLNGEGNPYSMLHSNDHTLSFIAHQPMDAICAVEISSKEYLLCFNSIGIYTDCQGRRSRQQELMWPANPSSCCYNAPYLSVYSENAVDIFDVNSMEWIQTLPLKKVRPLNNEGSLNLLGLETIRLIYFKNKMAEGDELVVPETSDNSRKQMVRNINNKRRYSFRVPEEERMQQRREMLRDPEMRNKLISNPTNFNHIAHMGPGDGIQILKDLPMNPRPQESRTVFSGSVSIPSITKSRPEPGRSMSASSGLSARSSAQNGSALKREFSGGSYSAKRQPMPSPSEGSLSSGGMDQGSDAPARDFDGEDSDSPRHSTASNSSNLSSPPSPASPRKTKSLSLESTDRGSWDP

For the compound `COc1cc(CCc2cc(NC(=O)c3ccc(N4C[C@@H](C)N[C@@H](C)C4)cc3)n[nH]2)cc(OC)c1` [AZD-4547], the Kd in assay [1], in assay [2], in assay [3], in assay [4] and in assay [5] was > 30 µM (inactive) each time.
As to `CNC(=O)c1ccc(-c2cnc3ncc(Cc4ccc5ncccc5c4)n3n2)cc1F` [CAPMATINIB], the Kd in assay [1], in assay [2], in assay [3], in assay [4] and in assay [5] was > 30 µM (inactive) throughout.
Consider `CN1CC[C@@H](c2c(O)cc(O)c3c(=O)cc(-c4ccccc4Cl)oc23)[C@@H]1CO`, for which the Kd in assay [1], in assay [2], in assay [3], in assay [4] and in assay [5] was > 30 µM (inactive) throughout.
Consider `N[C@@H]1CCCN(c2c(/C=C3\SC(=O)NC3=O)cccc2-c2ccccc2)C1`, for which the Kd in assay [1], in assay [2], in assay [3], in assay [4] and in assay [5] was > 30 µM (inactive) each time.
For `C[C@@H]1CN(Cc2ccc(F)cc2)[C@@H](C)CN1C(=O)c1cc2c(C(=O)C(=O)N(C)C)cn(C)c2cc1Cl` [TALMAPIMOD], the Kd in assay [1], in assay [2], in assay [3], in assay [4] and in assay [5] was > 30 µM (inactive) each time.
Consider `O=C(Nc1ccc(-c2ccnc(Nc3ccc(N4CCOCC4)cc3)n2)cc1)C1CCCN1` (stereo not given) [XL-019], for which the Kd in assay [1] is > 30 µM (inactive); in assay [2], > 30 µM (inactive); in assay [3], > 30 µM (inactive); in assay [4], > 30 µM (inactive); in assay [5], 0.561 µM (active).
On to `CN1CCC(COc2cnc(-c3cccc(Cn4nc(-c5cccc(C#N)c5)ccc4=O)c3)nc2)CC1` [TEPOTINIB], for which the Kd in assay [1], in assay [2], in assay [3], in assay [4] and in assay [5] was > 30 µM (inactive) throughout.
Regarding `COc1cc2nccc(Oc3ccc(NC(=O)NC4CC4)c(Cl)c3)c2cc1C(N)=O` [LENVATINIB], the Kd in assay [1], in assay [2], in assay [3], in assay [4] and in assay [5] was > 30 µM (inactive) each time.
`CCn1c(=O)c(-c2cc[nH]n2)cc2c(C)nc(N)nc21` [VOXTALISIB]: the Kd in assay [1], in assay [2], in assay [3], in assay [4] and in assay [5] was > 30 µM (inactive) throughout.
With `Cc1cc2c(F)c(Oc3ncnn4cc(OC[C@@H](C)OC(=O)[C@H](C)N)c(C)c34)ccc2[nH]1` [BRIVANIB ALANINATE], the Kd in assay [1], in assay [2], in assay [3], in assay [4] and in assay [5] was > 30 µM (inactive) throughout.
Consider `CNC(=O)c1cc(Oc2ccc(NC(=O)Nc3ccc(Cl)c(C(F)(F)F)c3)c(F)c2)ccn1` [REGORAFENIB], for which the Kd in assay [1], in assay [2], in assay [3], in assay [4] and in assay [5] was > 30 µM (inactive) each time.
In the case of `COC(=O)N[C@@H](C)CNc1nccc(-c2cn(C(C)C)nc2-c2cc(Cl)cc(NS(C)(=O)=O)c2F)n1` [ENCORAFENIB], the Kd in assay [1], in assay [2], in assay [3], in assay [4] and in assay [5] was > 30 µM (inactive) in each case.
For the compound `Cc1c(F)cc(C(=O)NC2CC2)cc1-c1ccc(C(=O)NCC(C)(C)C)cn1` [LOSMAPIMOD], the Kd in assay [1], in assay [2], in assay [3], in assay [4] and in assay [5] was > 30 µM (inactive) each time.
Turning to `Cc1cc(-c2cc(O)ccc2Cl)cc2nnc(Nc3ccc(OCCN4CCCC4)cc3)nc12`, the Kd in assay [1], in assay [2], in assay [3], in assay [4] and in assay [5] was > 30 µM (inactive) in each case.
For the compound `C=CC(=O)N1CCC(Oc2cc3c(Nc4ccc(Cl)c(Cl)c4F)ncnc3cc2OC)CC1` [POZIOTINIB], the Kd in assay [1], in assay [2], in assay [3], in assay [4] and in assay [5] was > 30 µM (inactive) in each case.
On to `CC[C@@H]1C(=O)N(C)c2cnc(Nc3ccc(C(=O)N[C@H]4CC[C@H](N5CCN(CC6CC6)CC5)CC4)cc3OC)nc2N1C(C)C` [VOLASERTIB], for which the Kd in assay [1], in assay [2], in assay [3], in assay [4] and in assay [5] was > 30 µM (inactive) throughout.

For orientation: Kd means a measure of binding affinity in units of concentration.
